Data reported in US9434745B2, “7-oxo-thiazolopyridine carbonic acid derivatives and their use in the treatment, amelioration or prevention of a viral disease” (Savira Pharmaceuticals GmbH, priority 2012, dated 2016).

Molecular target: T1, influenza A virus (IAV) PA-Nter fragment (amino acids 1-209) (Influenza A virus, UniProt P31343)
T1 construct: PA-Nter fragment (amino acids 1-209); made in house
Test: FRET endonuclease activity assay
Type: biochemical
Conditions: @ 1 μM; read-out: FRET % reduction of v0

Going from `O=C(O)c1cn(C(c2ccccc2)c2ccccc2)c2sc(NS(=O)(=O)c3ccc(Cl)cc3F)nc2c1=O` to `CCOC(=O)c1cn(C(c2ccccc2)c2ccccc2)c2sc(NS(=O)(=O)c3ccc(Cl)cc3F)nc2c1=O`, the inhibition at 1 µM rises from 2% to 5.6%.

First: CCOC(=O)c1ccc(S(=O)(=O)Nc2nc3c(=O)c(C(=O)OCC)cn(Cc4ccccc4-c4ccccc4)c3s2)cc1
Second: COc1ccc(S(=O)(=O)Nc2nc3c(=O)c(C(=O)O)cn(C(c4ccccc4)c4ccccc4)c3s2)cc1
The inhibition at 1 µM of the first is higher: 8.1% for the first, 7.8% for the second.

Same assay, conditions: @ 25 μM; read-out: FRET % reduction of v0

First: CC(C)c1cc2n(CCCc3ccccc3)cc(C(=O)O)c(=O)n2n1 [drawing 222]
Second: O=C(O)c1cn(CCc2ccc(O)cc2)c2cc(C3CC3)nn2c1=O [drawing 227]
The inhibition at 25 µM of the first is lower: 22% for the first, 27% for the second.

First: O=C(O)c1c[nH]c2cc(C3CCCC3)nn2c1=O
Second: O=C(O)c1cn(CCc2cccc(C(F)(F)F)c2)c2cc(C3CC3)nn2c1=O [drawing 225]
The inhibition at 25 µM of the first is higher: 41% for the first, 32% for the second.

First: CS(=O)(=O)n1cc(C(=O)O)c(=O)n2nc(N)cc12
Second: CCOC(=O)c1cn(CCc2ccc(O)cc2)c2cc(C3CC3)nn2c1=O [drawing 223]
The inhibition at 25 µM of the first is higher: 31% for the first, 22% for the second.

Same assay, conditions: @ 50 μM; read-out: FRET % reduction of v0

Compared with `O=C(O)c1cn(Cc2ccccc2-c2ccccc2)c2ccnn2c1=O`, `Nc1cc2n(Cc3ccccc3)cc(C(=O)O)c(=O)n2n1` is higher in inhibition at 50 µM: 29% for the first, 35% for the second.

Same assay, conditions: from initial reaction velocities (v0) of RNA substrate cleavage

First: O=C(O)c1cn(Cc2ccccc2-c2ccccc2)c2sc(NCc3ccccc3)nc2c1=O
Second: O=C(O)c1cn(Cc2ccccc2-c2ccccc2)c2sc(NCc3cccc(Cl)c3)nc2c1=O
The IC50 of the first is 1.6-fold lower: 3.2 µM for the first, 5.2 µM for the second.

`CC(Nc1nc2c(=O)c(C(=O)O)cn(Cc3ccccc3-c3ccccc3)c2s1)c1ccccc1` (centres unmarked) and `O=C(O)c1cn(Cc2ccccc2-c2ccccc2)c2sc(NS(=O)(=O)c3ccccc3)nc2c1=O` are within 1.5-fold of each other in IC50: 5.8 µM for the first, 6.5 µM for the second.

`COc1ccc(CNc2nc3c(=O)c(C(=O)O)cn(Cc4ccccc4-c4ccccc4)c3s2)cc1` and `O=C(O)c1cn(Cc2ccccc2-c2ccccc2)c2sc(NCc3ccc(Cl)cc3)nc2c1=O` are within 1.5-fold of each other in IC50: 2.9 µM for the first, 2.3 µM for the second.

Compared with `CC(C)c1cc2[nH]cc(C(=O)O)c(=O)n2n1`, `Nc1cc2[nH]cc(C(=O)O)c(=O)n2n1` is 3.5-fold lower in IC50: 35 µM for the first, 10 µM for the second. The second is the more potent here.

Going from `CNc1nc2c(=O)c(C(=O)O)cn(Cc3ccccc3-c3ccccc3)c2s1` to `O=C(O)c1cn(Cc2ccccc2-c2ccccc2)c2sc(O)nc2c1=O`, the IC50 falls from 2.8 µM to 0.16 µM (18-fold).

Going from `COc1ccc(CNc2nc3c(=O)c(C(=O)O)cn(Cc4ccccc4-c4cc(C)ccc4C)c3s2)cc1` to `Cc1ccc(C)c(-c2ccccc2Cn2cc(C(=O)O)c(=O)c3nc(O)sc32)c1`, the IC50 falls from 2.1 µM to 0.25 µM (8.4-fold). The second is the more potent here.

First: COc1ccc(S(=O)(=O)Nc2nc3c(=O)c(C(=O)O)cn(Cc4ccccc4-c4ccccc4)c3s2)cc1
Second: COc1ccc(S(=O)(=O)Nc2nc3c(=O)c(C(=O)O)cn(Cc4ccccc4-c4ccc(Cl)cc4)c3s2)cc1
The IC50 of the first is 2.7-fold lower: 2.7 µM for the first, 7.2 µM for the second.

Going from `N#Cc1ccc(S(=O)(=O)Nc2nc3c(=O)c(C(=O)O)cn(Cc4ccccc4-c4ccc(Cl)cc4)c3s2)cc1` to `O=C(O)c1cn(Cc2ccccc2-c2ccccc2)c2sc(NS(=O)(=O)c3ccc(Cl)cc3F)nc2c1=O`, the IC50 rises from 2.5 µM to 5.7 µM (2.3-fold). The first is the more potent here.

`O=C(O)c1cn(Cc2ccccc2-c2ccccc2)c2sc(NS(=O)(=O)Cc3ccc(Cl)cc3Cl)nc2c1=O` and `O=C(O)c1cn(Cc2ccccc2-c2ccccc2)c2sc(NS(=O)(=O)Cc3ccccc3)nc2c1=O` are within 1.5-fold of each other in IC50: 7 µM for the first, 7.3 µM for the second.

First: Nc1nc2c(=O)c(C(=O)O)cn(Cc3ccccc3-c3ccccc3)c2s1
Second: O=C(O)c1cn(Cc2ccccc2-c2ccccc2)c2sc(NC3CC3)nc2c1=O
The IC50 of the first is 2.7-fold lower: 0.94 µM for the first, 2.5 µM for the second. The first is the more potent here.

`Nc1cc2n(S(=O)(=O)c3ccccc3)cc(C(=O)O)c(=O)n2n1` and `O=C(O)c1cn(CCc2cccc(F)c2)c2cc(C3CC3)nn2c1=O` [drawing 226] are within 1.5-fold of each other in IC50: 71 µM for the first, 62 µM for the second.

`CCOC(=O)c1cn(Cc2ccccc2-c2ccccc2)c2sc(NCc3c(Cl)cccc3Cl)nc2c1=O` and `COCCNc1nc2c(=O)c(C(=O)O)cn(Cc3ccccc3-c3ccccc3)c2s1` are within 1.5-fold of each other in IC50: 6.3 µM for the first, 9 µM for the second.

First: O=C(O)c1c[nH]c2ccnn2c1=O
Second: O=C(O)c1cn(Cc2ccc(Cl)cc2-c2ccccc2)c2sc(O)nc2c1=O
The IC50 of the first is 67-fold higher: 58 µM for the first, 0.87 µM for the second. The second is the more potent here.
